Data from patent US20250277734A1, “M-MIC: Microfluidic Microbiologically Influenced Corrosion Model” (The Texas A&M University System, priority 2017, published 2025).

Test system: Shewanella oneidensis biofilms
Experiment: Biocide efficacy on S. oneidensis biofilms grown on carbon steel in single-electrode M-MIC (live/dead staining, confocal microscopy)
Assay type: cell-based
Details: for increase in the percentage of dead cells: 400 ppm biocide added to 12 hour biofilm on carbon steel, after 4 hours SYTO9/propidium iodide staining, 30° C.
Experimental: Biofilms of Shewanella oneidensis (e.g., S. oneidensis, an iron-reducing bacterium commonly found in MIC sites) were grown on carbon steel in the single-metal system, such as M-MIC 200 as depicted in FIG. 2. In this Example 2, the single electrode comprised steel, the substrate 112 comprised glass, and the structure 104 comprised PDMS. Biofilms were developed in the system at 30° C. with a constant flow of Luria-Bertani growth medium which contained 10 g/l tryptone, 5 g/l yeast extract and 15 g/l sodium chloride being introduced at a flow rate of 0.25 mL/h. After 12 hours, flow of growth medium was stopped and 400 ppm of two common oilfield biocides, glutaraldehyde and tetrakis-hydroxymethyl-phosphonium sulfate (THPS), were added to the biofilms. After 4 hours, live and dead cells in the biofilms were stained using SYTO9 (green) and propidium iodide (red), respectively. Stained biofilms were analyzed for the percentage of live and dead cells to determine biocide efficiency. […] In addition to determining the right biocide, similar studies can be conducted with different biocide concentrations to also determine the appropriate biocide dosage.

tetrakis-hydroxymethyl-phosphonium sulfate [THPS]
increase in the percentage of dead cells: 3.1 fold
relative biocide effectiveness against S. oneidensis biofilms (400 ppm, 4 hours, under the conditions tested): more effective than glutaraldehyde

O=CCCCC=O [glutaraldehyde]
increase in the percentage of dead cells: 2.1 fold
